target: T1, CK2α (Homo sapiens, UniProt P68400); test: not given; conditions: from ITC Kd
T1 sequence (P68400 whole entry): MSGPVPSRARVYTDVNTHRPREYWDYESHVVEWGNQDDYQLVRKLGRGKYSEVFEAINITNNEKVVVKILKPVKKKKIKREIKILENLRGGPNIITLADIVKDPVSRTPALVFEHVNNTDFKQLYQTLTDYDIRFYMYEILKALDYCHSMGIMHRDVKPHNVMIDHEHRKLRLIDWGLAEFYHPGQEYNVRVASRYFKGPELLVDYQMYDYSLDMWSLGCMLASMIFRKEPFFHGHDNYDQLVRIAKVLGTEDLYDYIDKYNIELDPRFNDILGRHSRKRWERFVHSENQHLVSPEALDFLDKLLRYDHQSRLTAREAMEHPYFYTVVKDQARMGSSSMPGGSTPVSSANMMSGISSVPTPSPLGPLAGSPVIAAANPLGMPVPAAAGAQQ

For `O=C(O)CC(=O)NCCCNCc1ccc(-c2ccccc2)c(Cl)c1` [Compound 20], which ligand efficiency is on record?
Its ligand efficiency is 0.19.

Which ligand efficiency does the source give for `COC(=O)CC(=O)NCCCNCc1ccc(-c2ccccc2)c(Cl)c1.Cl` [Compound 19] here?
The ligand efficiency was 0.23.

target: T1, CK2α; test: biochemical; conditions: read-out: % Inhibition at 500 μM

With `O=C(O)CC(=O)NCCCNCc1ccc(-c2ccccc2)c(Cl)c1` [Compound 20] as the molecule, how does the inhibition at 500 µM read?
Its inhibition at 500 µM is 20 ± 4%.

For `NC(=O)CCNCc1ccc(-c2ccccc2)c(Cl)c1` [Compound 16], which inhibition at 500 µM is on record?
The inhibition at 500 µM was 16 ± 6%.

`CCCNCc1ccc(-c2ccccc2)c(Cl)c1` [Compound 12] was tested. Which inhibition at 500 µM did it give?
Its inhibition at 500 µM is 33 ± 5%.

With `CC(=O)NCCNCc1ccc(-c2ccccc2)c(Cl)c1` [Compound 17] as the molecule, how does the inhibition at 500 µM read?
Its inhibition at 500 µM is 12 ± 4%.

With `NCCCCNCc1ccc(-c2ccccc2)c(Cl)c1` [Compound 14] as the molecule, how does the inhibition at 500 µM read?
The inhibition at 500 µM was 18 ± 2%.

With `CCNCc1ccc(-c2ccccc2)c(Cl)c1` [Compound 11] as the molecule, how does the inhibition at 500 µM read?
Its inhibition at 500 µM is 23 ± 6%.

How did the inhibition at 500 µM turn out when `CNCc1ccc(-c2ccccc2)c(Cl)c1` [Compound 10] was run?
The inhibition at 500 µM was 44 ± 12%.

`CS(=O)(=O)NCCCNCc1ccc(-c2ccccc2)c(Cl)c1` [Compound 18] was tested. Which inhibition at 500 µM did it give?
Its inhibition at 500 µM is 51 ± 10%.

`OCCCNCc1ccc(-c2ccccc2)c(Cl)c1` [Compound 13] was tested. Which inhibition at 500 µM did it give?
The inhibition at 500 µM was 47 ± 5%.

`CC(=O)NCCCNCc1ccc(-c2ccccc2)c(Cl)c1` [Compound 15] was tested. Which inhibition at 500 µM did it give?
Its inhibition at 500 µM is 39 ± 3%.

How did the inhibition at 500 µM turn out when `COC(=O)CC(=O)NCCCNCc1ccc(-c2ccccc2)c(Cl)c1.Cl` [Compound 19] was run?
The inhibition at 500 µM was 46 ± 2%.

Source: PMC5587527, “A fragment-based approach leading to the discovery of a novel binding site and the selective CK2 inhibitor CAM4066” (Bioorganic & Medicinal Chemistry, 2017)
